Assay: Inhibition of p38 kinase

Fc1ccc(-c2nc3[nH]ncc3c(-c3ccc(F)cc3)c2-c2ccncc2)cc1
IC50: 161 nM

From ChEMBL document CHEMBL1141453, “Dissection of the recognition properties of p38 MAP kinase. Determination of the binding mode of a new pyridinyl-heterocycle inhibitor family” (J Med Chem, 2007)
